According to patent US10494380B2, “Nitrogen-containing tricyclic derivatives having HIV replication inhibitory activity” (priority 2015, dated 2019):

The molecules below were run on T125A mutant virus (HIV-1 NL-432 recombinant molecular clone, IN gene) (assay: HIV replication inhibition assay against integrase 124/125 mutant virus (Test Example 2)). Conditions: Human immunodeficiency virus 1, MT4, read-out: EC50 against T125A mutant virus, T125A mutant virus (HIV-1 NL-432 IN gene), MT-4 cells, MTT.
Type: cell-based
Description: Persistently HIV (HTLV-IIIB strain) infected human T cell strain Molt-4 clone8 was cultured in RPMI-1640 medium supplemented with 10% fetal bovine serum and the supernatant was filtered, then the virus titer was measured and stored at −80° C. Polymorphic mutations in HIV-1-infected patients have been observed in amino acids 124 and 125 on the HIV-1 integrase (IN) gene. A point mutation was introduced on the amino acids 124 and/or 125 of IN gene of the HIV-1 NL-432 recombinant molecular clone to generate a mutant virus plasmid construct. These mutant virus plasmids were transfected into 293T cells, and after two days, the supernatant was filtered and then the virus titer was measured and stored at −80° C. Each anti-HIV active substance was diluted with culture medium described above to the designated concentration, which was dispensed into 96-well microtiter plate by 50 μL. Next, 100 μL of MT-4 cell suspension (2.5×10^4 cells) was dispensed into each well, then 50 μl of HIV-containing supernatant diluted with culture medium described above was added thereto (60 pfu (plaque forming unit)).
Cells were cultured at 37° C. in CO2 incubator for four days, then 30 μL of MTT (3-(4,5-dimethylthiazole-2-yl)-2,5-diphenyltetrazolyum bromide) reagent (5 mg/mL in PBS) was added to all wells followed by incubation for 1 hour. In this step, MTT was reduced to insoluble formazan in living cells. To elute generated formazan, 150 μL of the culture supernatant was removed from all wells, then 150 μL of cell lysis solution (10% Triton X-100 and 0.4% (v/v)-HCl containing isopropanol) was added thereto, followed by shaking with a plate mixer. The formazan was measured with micro plate reader at OD: 560 nm and 690 nm (reference wavelength) and the result was compared with the reference wells. EC50 means the compound concentration at which 50% of cytotoxicity caused by virus infection is inhibited.

| Structure (SMILES) | EC50 [nM] |
| --- | --- |
| Cc1c([C@H](OC(C)(C)C)C(=O)O)c(-c2ccc(F)cc2)c2cc(C)n3c2c1N(c1ncccn1)CC3 [Compound I-123] | 14 |
| Cc1c([C@H](OC(C)(C)C)C(=O)O)c(-c2ccc(Cl)cc2)c2cc(C)n3c2c1N(c1ccccn1)CC3 [Compound I-125] | 8.2 |
| Cc1c([C@H](OC(C)(C)C)C(=O)O)c(-c2ccc(Cl)cc2)c2cc(C)n3c2c1N(C)CC3(C)C [Compound I-127] | 16 |
| Cc1c([C@H](OC(C)(C)C)C(=O)O)c(-c2ccc(Cl)cc2)c2cc(C)n3c2c1N1C(=O)OCC[C@H]1C3 [Compound I-129] | 89 |
| Cc1ccc(-c2c([C@H](OC(C)(C)C)C(=O)O)c(C)c3c4c2cc(C)n4CCN3CCN2CCOCC2)cc1 [Compound I-131] | 15 |
| COC(=O)N1CCn2c(C)cc3c(-c4ccc(F)cc4)c([C@H](OC(C)(C)C)C(=O)O)c(C)c1c32 [Compound I-132] | 28 |
| Cc1c([C@H](OC(C)(C)C)C(=O)O)c(-c2ccc(Cl)cc2)c2cc(C)n3c2c1N(Cc1ccncc1)CC3 [Compound I-135] | 8.2 |
| Cc1c([C@H](OC(C)(C)C)C(=O)O)c(-c2ccc(Cl)cc2)c2cc(C)n3c2c1N(Cc1cccnc1)CC3 [Compound I-136] | 8.4 |
| Cc1c([C@H](OC(C)(C)C)C(=O)O)c(-c2ccc(Cl)cc2)c2cc(C)n3c2c1N(S(=O)(=O)c1cccnc1)CC3 [Compound I-139] | 6.8 |
| CC(=O)N(C)CCN1CCn2c(C)cc3c(-c4ccc(C)cc4)c([C@H](OC(C)(C)C)C(=O)O)c(C)c1c32 [Compound I-141] | 41 |
| Cc1c([C@H](OC(C)(C)C)C(=O)O)c(-c2ccc(Cl)cc2)c2cc(C)n3c2c1N1C(=O)OC[C@@H]1C3 [Compound I-146] | 16 |
| Cc1csc(N2CCn3c(C)cc4c(-c5ccc(Cl)cc5)c([C@H](OC(C)(C)C)C(=O)O)c(C)c2c43)n1 [Compound I-147] | 16 |
| Cc1ccc(-c2c([C@H](OC(C)(C)C)C(=O)O)c(C)c3c4c2cc(C)n4C[C@@H](C)N3CCN(C)C)cc1 [Compound I-148] | 22 |
| Cc1c([C@H](OC(C)(C)C)C(=O)O)c(-c2ccc(Cl)cc2)c2cc(C)n3c2c1N(C1CCOCC1)CC3 [Compound I-149] | 15 |
| Cc1coc(N2CCn3c(C)cc4c(-c5ccc(Cl)cc5)c([C@H](OC(C)(C)C)C(=O)O)c(C)c2c43)n1 [Compound I-150] | 15 |
| Cc1c([C@H](OC(C)(C)C)C(=O)O)c(-c2ccc(Cl)cc2)c2cc(C)n3c2c1N(Cc1cncnc1)CC3 [Compound I-153] | 11 |
| Cc1c([C@H](OC(C)(C)C)C(=O)O)c(-c2ccc(Cl)cc2)c2cc(C)n3c2c1N(c1ccc(F)cn1)CC3 [Compound I-154] | 13 |
| Cc1c([C@H](OC(C)(C)C)C(=O)O)c(-c2ccc(Cl)cc2)c2cc(C)n3c2c1N(c1ccncc1)CC3 [Compound I-155] | 58 |
| Cc1ccc(-c2c([C@H](OC(C)(C)C)C(=O)O)c(C)c3c4c2cc(C)n4C[C@@H](C)N3CCN2CCOCC2)cc1 [Compound I-158] | 4.6 |
| Cc1c(-c2c([C@H](OC(C)(C)C)C(=O)O)c(C)c3c4c2cc(C)n4CCN3C)ccc2c1NCCO2 [Compound I-160] | 70 |

Same assay, conditions: read-out: EC50 against T125A mutant virus; T125A mutant virus (HIV-1 NL-432 IN gene), MT-4 cells, MTT

| Structure (SMILES) | EC50 [nM] |
| --- | --- |
| COC(=O)N1CC(C)n2c(C)cc3c(-c4ccc(Cl)cc4)c([C@H](OC(C)(C)C)C(=O)O)c(C)c1c32 (some centres unmarked) [Compound I-119] | 2.8 |
| COC(=O)N1CC(C)n2c(C)cc3c(-c4ccc(Cl)cc4)c([C@H](OC(C)(C)C)C(=O)O)c(C)c1c32 (some centres unmarked) [Compound I-120] | 52 |
| Cc1c([C@H](OC(C)(C)C)C(=O)O)c(-c2ccc(F)cc2)c2cc(C)n3c2c1N(C)CC3C (some centres unmarked) [Compound I-133] | 96 |
| Cc1c([C@H](OC(C)(C)C)C(=O)O)c(-c2ccc(F)cc2)c2cc(C)n3c2c1N(C)CC3C (some centres unmarked) [Compound I-134] | 8.4 |
| Cc1c([C@H](OC(C)(C)C)C(=O)O)c(-c2ccc(Cl)cc2)c2cc(C)n3c2c1N(C)C1COCC13 (some centres unmarked) [Compound I-137] | 86 |
| Cc1ccc(-c2c([C@H](OC(C)(C)C)C(=O)O)c(C)c3c4c2cc(C)n4C(C)CN3CCN(C)C)cc1 (some centres unmarked) [Compound I-163] | 38 |
